Measured values published in the NIST ThermoML archive (doi:10.1021/je800530u).

Conditions: Liquid, Closed cell (Static) method

NCCO [2-aminoethan-1-ol]
Conditions | vapor or sublimation pressure [kPa]
283.15 K | 0.0158
283.34 K | 0.016
288.34 K | 0.02533
293.15 K | 0.0382
293.34 K | 0.03866
298.34 K | 0.05866
303.15 K | 0.0867
303.34 K | 0.08799
308.34 K | 0.1293
313.15 K | 0.1855
313.34 K | 0.188
318.34 K | 0.2693
323.15 K | 0.3762
323.34 K | 0.3813
328.34 K | 0.5333
333.15 K | 0.7274
333.34 K | 0.7359
338.34 K | 1.007
343.15 K | 1.347
343.34 K | 1.363
348.34 K | 1.827
353.15 K | 2.4
353.34 K | 2.425
358.34 K | 3.193
363.09 K | 4.113
363.15 K | 4.126

CN1CCOCC1 [N-methylmorpholine]
Conditions | vapor or sublimation pressure [kPa]
273.18 K | 0.6893
278.18 K | 0.9533
283.18 K | 1.3
288.18 K | 1.748
293.18 K | 2.322
298.18 K | 3.049
303.18 K | 3.96
308.18 K | 5.09
313.15 K | 6.471
313.18 K | 6.479
318.18 K | 8.174
323.15 K | 10.21
323.18 K | 10.22
328.18 K | 12.68
333.15 K | 15.58
333.18 K | 15.6
338.18 K | 19.06
343.15 K | 23.1
343.18 K | 23.13
348.18 K | 27.88
353.08 K | 33.27
353.15 K | 33.35
363.15 K | 47.02

O [water]
Conditions | vapor or sublimation pressure [kPa]
282.87 K | 1.177
283.15 K | 1.2
287.87 K | 1.636
292.87 K | 2.244
293.15 K | 2.284
297.87 K | 3.044
302.87 K | 4.081
303.15 K | 4.148
307.87 K | 5.416
312.87 K | 7.114
313.15 K | 7.222
317.87 K | 9.258
322.87 K | 11.94
323.15 K | 12.11
327.87 K | 15.27
332.87 K | 19.36
333.15 K | 19.62
337.87 K | 24.37
342.87 K | 30.44
343.15 K | 30.82
347.87 K | 37.76
352.87 K | 46.53
353.15 K | 47.07
357.87 K | 56.98
362.87 K | 69.35
363.15 K | 70.1
363.8 K | 71.88
